According to patent US20060074109A1, “Use of inhibitors of 24-hydroxylase in the treatment of cancer” (Sapphire Therapeutics, Inc., priority 2004, published 2006):

Key:
[1] = molecular target: T1, 24OHase in OVCAR-3 cells (Homo sapiens, UniProt Q07973); experiment: Metabolic analysis of 25(OH)D3: 24,25(OH)2D3 production; assay type: cell-based; conditions: for amount of 24,25(OH)2D3 relative to 0 hr: first experiment
T1 construct: Also, 24OHase is expressed in OVCAR-3 cells; endogenous in cells; host or cells: OVCAR-3
T1 sequence (Q07973 36-514): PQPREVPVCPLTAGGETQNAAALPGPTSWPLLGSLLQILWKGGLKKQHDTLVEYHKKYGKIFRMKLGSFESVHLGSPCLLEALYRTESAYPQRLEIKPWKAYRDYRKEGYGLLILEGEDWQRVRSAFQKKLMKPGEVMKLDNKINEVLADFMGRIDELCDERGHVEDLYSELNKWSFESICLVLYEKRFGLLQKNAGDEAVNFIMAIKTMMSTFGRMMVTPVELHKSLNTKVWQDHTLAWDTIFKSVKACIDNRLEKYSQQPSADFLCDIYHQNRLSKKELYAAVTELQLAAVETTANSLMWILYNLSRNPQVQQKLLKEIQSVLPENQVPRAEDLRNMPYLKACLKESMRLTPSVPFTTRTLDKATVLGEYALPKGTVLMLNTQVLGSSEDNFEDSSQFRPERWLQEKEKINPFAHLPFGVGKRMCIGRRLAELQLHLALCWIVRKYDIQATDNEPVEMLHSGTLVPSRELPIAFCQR
Description: (§1) OVCAR-3 cells (1.5×10^6 cell/flask) were plated on T25 culture flasks. One day after plating, cells were treated with 500 nM 25(OH)D3 in RPMI 1640 medium supplemented with 10% FBS, 10 μg/ml insulin, 0.25% glucose and antibiotics (100 IU/ml penicillin, 100 μg/ml streptomycin). After 0, 3 or 24 hr, the medium was collected and the cell monolayer was extracted with 1 ml methanol. After 15 min incubation at room temperature, the methanol was transformed into the same tube than the sample medium. The samples for the measurement of the 25(OH)D3 metabolites were purified using the acetonitrile-C 18 Sep-Pak (Waters Corporation, Milford, Mass.) procedure (Turnbull, H., Trafford, D. J., Makin, H. L., “A Rapid and Simple Method for the Measurement of Plasma 25-hydroxyvitamin D2 and 25-hydroxyvitamin D3 Using Sep-Pak C 18 Cartridges and a Single High-Performance Liquid Chromatographic Step,” Clin. Chim. Acta., 120:65-76 (1982)) followed by separation of the metabolites by a high-performance liquid chromatography. […] The second measurement was done following the same procedure except dextran charcoal-treated FBS was used instead of FBS, 24OHase inhibitor (200 nM VID400) was used with the 500 nM 25(OH)D3 treatment, and the samples were collected only after 0 and 24 hr.

[2] = molecular target: T2, 1αOHase in OVCAR-3 cells (Homo sapiens, UniProt O15528); experiment: Metabolic analysis of 25(OH)D3: 1,25(OH)2D3 production; assay type: cell-based
T2 construct: showing the expression of 1αOHase in OVCAR-3 cells; endogenous in cells; host or cells: OVCAR-3
T2 sequence (O15528 1-508): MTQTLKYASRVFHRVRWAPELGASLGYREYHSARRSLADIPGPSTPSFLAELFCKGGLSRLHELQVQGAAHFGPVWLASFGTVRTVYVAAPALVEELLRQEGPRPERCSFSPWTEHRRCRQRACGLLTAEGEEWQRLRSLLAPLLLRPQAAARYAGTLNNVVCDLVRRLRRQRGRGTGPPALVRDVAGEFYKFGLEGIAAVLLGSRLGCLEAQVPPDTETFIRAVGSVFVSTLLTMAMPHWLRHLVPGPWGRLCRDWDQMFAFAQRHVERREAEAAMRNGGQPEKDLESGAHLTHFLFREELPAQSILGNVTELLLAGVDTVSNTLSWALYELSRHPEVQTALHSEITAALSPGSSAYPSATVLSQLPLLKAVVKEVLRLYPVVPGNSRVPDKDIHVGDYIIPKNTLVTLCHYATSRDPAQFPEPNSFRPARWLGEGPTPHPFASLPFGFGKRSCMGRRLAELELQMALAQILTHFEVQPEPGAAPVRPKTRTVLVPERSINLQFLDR
Description: as §1

[3] = 500 nM 25(OH)D3, 0 hr, experiment I (FBS)
[4] = 500 nM 25(OH)D3, 3 hr, experiment I (FBS)
[5] = 500 nM 25(OH)D3, 24 hr, experiment I (FBS)
[6] = 500 nM 25(OH)D3, 24 hr, experiment II (dextran charcoal-treated FBS)
[7] = 200 nM VID400 + 500 nM 25(OH)D3, 24 hr, second experiment
[8] = 500 nM 25(OH)D3 + 200 nM VID400, 24 hr, experiment II (dextran charcoal-treated FBS)

Row | production of 24,25(OH)2D3 compared to 500 nM 25(OH)D3 treatment alone [1, 7] | 24,25(OH)2D3 [1, 8] [nM] | 1,25(OH)2D3 [2, 8] [pM] | SMILES | 24,25(OH)2D3 [1, 3] [nM] | 24,25(OH)2D3 ([1]; 500 nM 25(OH)D3, 0 hr, experiment II (dextran charcoal-treated FBS)) [nM] | 24,25(OH)2D3 [1, 4] [nM] | amount of 24,25(OH)2D3 relative to 0 hr ([1]; 500 nM 25(OH)D3, 3 hr) [times] | 24,25(OH)2D3 [1, 5] [nM] | 24,25(OH)2D3 [1, 6] [nM] | amount of 24,25(OH)2D3 relative to 0 hr ([1]; 500 nM 25(OH)D3, 24 hr) [fold] | concentration of 24,25(OH)2D3 relative to 0 hr ([1]; 500 nM 25(OH)D3, 24 hr, second experiment) [times] | 1,25(OH)2D3 [2, 3] [pM] | 1,25(OH)2D3 [2, 4] [pM] | 1,25(OH)2D3 [2, 5] [pM] | 1,25(OH)2D3 [2, 6] [pM] | effect on production of 1,25(OH)2D3 [2, 7]
1 |  |  |  | C=C1CC[C@H](O)C/C1=C/C=C1\CCC[C@]2(C)[C@@H]([C@H](C)CCCC(C)(C)O)CC[C@@H]12 [25(OH)D3, monohydroxyvitamin D3] | 6 | 1 | 24 | 4 | 112 | 27 | 18 | 27 | 23 | 37 | 33 | 28 | 
2 | reduced to one-third | 8 | 27 | O=C(NC[C@@H](c1ccccc1)n1ccnc1)c1ccc(-c2ccc(Cl)cc2)cc1 [VID400, 2-(R)-4′-Chlorobiphenyl-4-carboxylic acid (2-imidazol-1-yl-2-phenyl-ethyl)-amide] |  |  |  |  |  |  |  |  |  |  |  |  | did not have an effect on production of 1,25(OH)2D3
